What was measured:
[1] = target: T1, beta amyloid (Aβ1-42) (Homo sapiens, UniProt P05067); assay: Inhibition of beta amyloid aggregation, fluorescence analysis (ThioflavinT assay); format: biochemical
T1 construct: beta amyloid (Aβ1-42, AnaSpec Inc, USA); purchased AnaSpec Inc, USA
Procedure: The effect of kaempferol3-O-[2-O″-(E)-p-coumaroyl][beta-D-glucopyranosyl-(1→3)-O-alpha-L-rhamnopyranosyl-(1→6)-O-beta-D-glucopyranoside] on inhibition of beta amyloid aggregation was confirmed by the fluorescence analysis (ThioflavinT assay). Specifically, beta amyloid (Aβ1-42, AnaSpec Inc, USA) was obtained and used at a concentration of 0.1 mg/ml and stored at −80° C. before use. Morin (20 μM), phenol red (20 μM), and kaempferol3-O-[2-O″-(E)-p-coumaroyl][beta-D-glucopyranosyl-(1→3)-O-alpha-L-rhamnopyranosyl-(1→6)-O-beta-D-glucopyranoside] (1 mg/ml) were respectively diluted with DMSO so as to be adjusted to the concentrations. In order to specify the degree of inhibition of Aβ1-42 aggregation, each of the compounds prepared at the above concentrations was diluted with 50 μL of 0.01 M sodium phosphate buffer solution to have a concentration of 10 μM, then 40 μL of 0.1 mg/ml of Aβ1-42 was added thereto, and then 10 μl of 2 mM thioflavinT was added thereto, and fluorescence was measured using a fluorescence spectrometer (RF-5300PC, SHIMADZU CORPORATION, Japan) at 37° C. for 150 minutes at intervals of 5 minutes. In the above table, “RFU” denotes the relative fluorescence unit, and “Increased RFU” denotes the amount of aggregated beta amyloid, and “Increased RFU (% of Pos.Cont.)” denotes the percentage value of the amount of aggregated beta amyloid with respect to that of the positive control group. “Novel substance 33” denotes kaempferol3-O-[2-O″-(E)-p-coumaroyl][beta-D-glucopyranosyl-(1→3)-O-alpha-L-rhamnopyranosyl-(1→6)-O-beta-D-glucopyranoside].

[2] = tested on: healthy adult subjects; assay: Human repeated insult patch test (HRIPT), cumulative skin irritation; format: in vivo; conditions: for Number of subjects showed ± reactivity, 1st time / Number of subjects showed + reactivity, 1st time / Number of subjects showed ++ reactivity, 1st time: 1st patch; for Number of subjects showed ± reactivity, 1st time / Number of subjects showed ± reactivity, 2nd time / Number of subjects showed ± reactivity, 3rd time / Number of subjects showed ± reactivity, 4th time / Number of subjects showed ± reactivity, 5th time / Number of subjects showed ± reactivity, 6th time / Number of subjects showed ± reactivity, 7th time / Number of subjects showed ± reactivity, 8th time / Number of subjects showed ± reactivity, 9th time: 1st of 3 lines (±); for Number of subjects showed + reactivity, 1st time / Number of subjects showed + reactivity, 2nd time / Number of subjects showed + reactivity, 3rd time / Number of subjects showed + reactivity, 4th time / Number of subjects showed + reactivity, 5th time / Number of subjects showed + reactivity, 6th time / Number of subjects showed + reactivity, 7th time / Number of subjects showed + reactivity, 8th time / Number of subjects showed + reactivity, 9th time: 2nd of 3 lines (+); for Number of subjects showed ++ reactivity, 1st time / Number of subjects showed ++ reactivity, 2nd time / Number of subjects showed ++ reactivity, 3rd time / Number of subjects showed ++ reactivity, 4th time / Number of subjects showed ++ reactivity, 5th time / Number of subjects showed ++ reactivity, 6th time / Number of subjects showed ++ reactivity, 7th time / Number of subjects showed ++ reactivity, 8th time / Number of subjects showed ++ reactivity, 9th time: 3rd of 3 lines (++); for Number of subjects showed ± reactivity, 2nd time / Number of subjects showed + reactivity, 2nd time / Number of subjects showed ++ reactivity, 2nd time: 2nd patch; for Number of subjects showed ± reactivity, 3rd time / Number of subjects showed + reactivity, 3rd time / Number of subjects showed ++ reactivity, 3rd time: 3rd patch; for Number of subjects showed ± reactivity, 4th time / Number of subjects showed + reactivity, 4th time / Number of subjects showed ++ reactivity, 4th time: 4th patch; for Number of subjects showed ± reactivity, 5th time / Number of subjects showed + reactivity, 5th time / Number of subjects showed ++ reactivity, 5th time: 5th patch; for Number of subjects showed ± reactivity, 6th time / Number of subjects showed + reactivity, 6th time / Number of subjects showed ++ reactivity, 6th time: 6th patch; for Number of subjects showed ± reactivity, 7th time / Number of subjects showed + reactivity, 7th time / Number of subjects showed ++ reactivity, 7th time: 7th patch; for Number of subjects showed ± reactivity, 8th time / Number of subjects showed + reactivity, 8th time / Number of subjects showed ++ reactivity, 8th time: 8th patch; for Average reactivity: 9 patches over three weeks, safe when less than 3; for Number of subjects showed ± reactivity, 9th time / Number of subjects showed + reactivity, 9th time / Number of subjects showed ++ reactivity, 9th time: 9th patch
Procedure: Human repeated insult patch tests (HRIPT) were conducted to determine the cumulative skin irritation by kaempferol3-O-[2-O″-(E)-p-coumaroyl][beta-D-glucopyranosyl-(1→3)-O-alpha-L-rhamnopyranosyl-(1→6)-O-beta-D-glucopyranoside] and to calculate the concentration range in which kaempferol3-O-[2-O″-(E)-p-coumaroyl][beta-D-glucopyranosyl-(1→3)-O-alpha-L-rhamnopyranosyl-(1→6)-O-beta-D-glucopyranoside] can be used on the skin.
Specifically, 15 healthy adult subjects were randomly selected, the test compositions (compositions for skin containing an emulsifier, a stabilizer, purified water, and the like in addition to the compound) containing the compound at 0.5 wt %, 1 wt %, and 3 wt % were dropped by 20 μl per chamber (IQ chamber, Epitest Ltd, Finland), and the patch was applied to the right side of the upper back of the subject and then replaced with new one after 24 hours. The skin reaction was examined before and after the patch test while the patch test was conducted three times a week and thus nine times for three weeks in total in this manner, the skin reaction was observed until the 48th hour after removal of the final patch, and the average reactivity was determined.
The skin reaction was judged according to the criteria of the International Contact Dermatitis Research Group (ICDRG). In the above table, “Novel substance 33” denotes kaempferol3-O-[2-O″-(E)-p-coumaroyl][beta-D-glucopyranosyl-(1→3)-O-alpha-L-rhamnopyranosyl-(1→6)-O-beta-D-glucopyranoside].

T1 sequence (P05067 672-713 limits assumed): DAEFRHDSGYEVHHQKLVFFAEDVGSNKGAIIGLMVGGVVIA

Question: Which results are given for `CC1OC(OCC2OC(Oc3c(-c4ccc(O)cc4)oc4cc(O)cc(O)c4c3=O)C(OC(=O)/C=C/c3ccc(O)cc3)C(O)C2O)C(O)C(OC2OC(CO)C(O)C(O)C2O)C1O` [Novel substance 33, kaempferol3-O-[2-O″-(E)-p-coumaroyl][beta-D-glucopyranosyl-(1→3)-O-alpha-L-rhamnopyranosyl-(1→6)-O-beta-D-glucopyranoside]]?
Answer: Increased RFU (% of Pos. Cont.) ([1]; compound 10 μM, Aβ1-42 0.1 mg/ml, 37° C., 150 minutes, Pos. Cont. (beta amyloid only) = 100): 77.0%; Increased RFU (amount of aggregated beta amyloid) ([1]; compound 10 μM, Aβ1-42 0.1 mg/ml, thioflavinT, 37° C., 150 minutes): 11235 RFU; inhibition of beta amyloid aggregation as compared with the positive control group ([1]; positive control (only beta amyloid, no compound) taken as 100%): 23.0%; Number of subjects showed ± reactivity, 1st time ([2]; 0.5 wt %): 0 persons; Number of subjects showed + reactivity, 1st time ([2]; 0.5 wt %): 0 persons; Number of subjects showed ++ reactivity, 1st time ([2]; 0.5 wt %): 0 persons; Number of subjects showed ± reactivity, 2nd time ([2]; 0.5 wt %): 0 persons; Number of subjects showed + reactivity, 2nd time ([2]; 0.5 wt %): 0 persons; Number of subjects showed ++ reactivity, 2nd time ([2]; 0.5 wt %): 0 persons; Number of subjects showed ± reactivity, 3rd time ([2]; 0.5 wt %): 0 persons; Number of subjects showed + reactivity, 3rd time ([2]; 0.5 wt %): 0 persons; Number of subjects showed ++ reactivity, 3rd time ([2]; 0.5 wt %): 0 persons; Number of subjects showed ± reactivity, 4th time ([2]; 0.5 wt %): 0 persons; Number of subjects showed + reactivity, 4th time ([2]; 0.5 wt %): 0 persons; Number of subjects showed ++ reactivity, 4th time ([2]; 0.5 wt %): 0 persons; Number of subjects showed ± reactivity, 5th time ([2]; 0.5 wt %): 0 persons; Number of subjects showed + reactivity, 5th time ([2]; 0.5 wt %): 0 persons; Number of subjects showed ++ reactivity, 5th time ([2]; 0.5 wt %): 0 persons; Number of subjects showed ± reactivity, 6th time ([2]; 0.5 wt %): 0 persons; Number of subjects showed + reactivity, 6th time ([2]; 0.5 wt %): 0 persons; Number of subjects showed ++ reactivity, 6th time ([2]; 0.5 wt %): 0 persons; Number of subjects showed ± reactivity, 7th time ([2]; 0.5 wt %): 0 persons; Number of subjects showed + reactivity, 7th time ([2]; 0.5 wt %): 0 persons; Number of subjects showed ++ reactivity, 7th time ([2]; 0.5 wt %): 0 persons; Number of subjects showed ± reactivity, 8th time ([2]; 0.5 wt %): 0 persons; Number of subjects showed + reactivity, 8th time ([2]; 0.5 wt %): 0 persons; Number of subjects showed ++ reactivity, 8th time ([2]; 0.5 wt %): 0 persons; Average reactivity ([2]; 0.5 wt %): 0; Number of subjects showed ± reactivity, 9th time ([2]; 0.5 wt %): 0 persons; Number of subjects showed + reactivity, 9th time ([2]; 0.5 wt %): 0 persons; Number of subjects showed ++ reactivity, 9th time ([2]; 0.5 wt %): 0 persons; Number of subjects showed ± reactivity, 1st time ([2]; 1 wt %): 0 persons; Number of subjects showed + reactivity, 1st time ([2]; 1 wt %): 0 persons; Number of subjects showed ++ reactivity, 1st time ([2]; 1 wt %): 0 persons; Number of subjects showed ± reactivity, 2nd time ([2]; 1 wt %): 0 persons; Number of subjects showed + reactivity, 2nd time ([2]; 1 wt %): 0 persons; Number of subjects showed ++ reactivity, 2nd time ([2]; 1 wt %): 0 persons; Number of subjects showed ± reactivity, 3rd time ([2]; 1 wt %): 0 persons; Number of subjects showed + reactivity, 3rd time ([2]; 1 wt %): 0 persons; Number of subjects showed ++ reactivity, 3rd time ([2]; 1 wt %): 0 persons; Number of subjects showed ± reactivity, 4th time ([2]; 1 wt %): 0 persons; Number of subjects showed + reactivity, 4th time ([2]; 1 wt %): 0 persons; Number of subjects showed ++ reactivity, 4th time ([2]; 1 wt %): 0 persons; Number of subjects showed ± reactivity, 5th time ([2]; 1 wt %): 0 persons; Number of subjects showed + reactivity, 5th time ([2]; 1 wt %): 0 persons; Number of subjects showed ++ reactivity, 5th time ([2]; 1 wt %): 0 persons; Number of subjects showed ± reactivity, 6th time ([2]; 1 wt %): 0 persons; Number of subjects showed + reactivity, 6th time ([2]; 1 wt %): 0 persons; Number of subjects showed ++ reactivity, 6th time ([2]; 1 wt %): 0 persons; Number of subjects showed ± reactivity, 7th time ([2]; 1 wt %): 0 persons; Number of subjects showed + reactivity, 7th time ([2]; 1 wt %): 0 persons; Number of subjects showed ++ reactivity, 7th time ([2]; 1 wt %): 0 persons; Number of subjects showed ± reactivity, 8th time ([2]; 1 wt %): 0 persons; Number of subjects showed + reactivity, 8th time ([2]; 1 wt %): 0 persons; Number of subjects showed ++ reactivity, 8th time ([2]; 1 wt %): 0 persons; Average reactivity ([2]; 1 wt %): 0; Number of subjects showed ± reactivity, 9th time ([2]; 1 wt %): 0 persons; Number of subjects showed + reactivity, 9th time ([2]; 1 wt %): 0 persons; Number of subjects showed ++ reactivity, 9th time ([2]; 1 wt %): 0 persons; Number of subjects showed ± reactivity, 1st time ([2]; 3 wt %): 0 persons; Number of subjects showed + reactivity, 1st time ([2]; 3 wt %): 0 persons; Number of subjects showed ++ reactivity, 1st time ([2]; 3 wt %): 0 persons; Number of subjects showed ± reactivity, 2nd time ([2]; 3 wt %): 0 persons; Number of subjects showed + reactivity, 2nd time ([2]; 3 wt %): 0 persons; Number of subjects showed ++ reactivity, 2nd time ([2]; 3 wt %): 0 persons; Number of subjects showed ± reactivity, 3rd time ([2]; 3 wt %): 0 persons; Number of subjects showed + reactivity, 3rd time ([2]; 3 wt %): 0 persons; Number of subjects showed ++ reactivity, 3rd time ([2]; 3 wt %): 0 persons; Number of subjects showed ± reactivity, 4th time ([2]; 3 wt %): 0 persons; Number of subjects showed + reactivity, 4th time ([2]; 3 wt %): 0 persons; Number of subjects showed ++ reactivity, 4th time ([2]; 3 wt %): 0 persons; Number of subjects showed ± reactivity, 5th time ([2]; 3 wt %): 0 persons; Number of subjects showed + reactivity, 5th time ([2]; 3 wt %): 0 persons; Number of subjects showed ++ reactivity, 5th time ([2]; 3 wt %): 0 persons; Number of subjects showed ± reactivity, 6th time ([2]; 3 wt %): 0 persons; Number of subjects showed + reactivity, 6th time ([2]; 3 wt %): 0 persons; Number of subjects showed ++ reactivity, 6th time ([2]; 3 wt %): 0 persons; Number of subjects showed ± reactivity, 7th time ([2]; 3 wt %): 0 persons; Number of subjects showed + reactivity, 7th time ([2]; 3 wt %): 0 persons; Number of subjects showed ++ reactivity, 7th time ([2]; 3 wt %): 0 persons; Number of subjects showed ± reactivity, 8th time ([2]; 3 wt %): 0 persons; Number of subjects showed + reactivity, 8th time ([2]; 3 wt %): 0 persons; Number of subjects showed ++ reactivity, 8th time ([2]; 3 wt %): 0 persons; Average reactivity ([2]; 3 wt %): 0; Number of subjects showed ± reactivity, 9th time ([2]; 3 wt %): 0 persons; Number of subjects showed + reactivity, 9th time ([2]; 3 wt %): 0 persons; Number of subjects showed ++ reactivity, 9th time ([2]; 3 wt %): 0 persons; cumulative skin irritation ([2]; HRIPT, 0.5 to 3 wt %): without cumulative skin irritation

Source: patent publication US10882882B2, “Post fermented tea-derived kaempferol-based compound” (AMOREPACIFIC CORPORATION, priority 2016, dated 2021)
